According to patent EP4595961A1, “SELEXIPAG FOR USE IN THE TREATMENT AND/OR PREVENTION OF ATHEROSCLEROSIS” (SORBONNE UNIVERSITE, priority 2024, dated 2025):
Read-outs that look alike come from different tables or passages of the source.

Key:
ABCG1 = ABCG1 gene expression by real-time RT-PCR in aortic smooth muscle cells; type: cell-based, human; conditions: normalized with HPRT, n=1 or 2
Procedure: (§1) The cells, grown to confluence according to the supplier's instructions (Lonza), were serum-depleted, pre-treated for 1h with increasing concentrations of ACT-333679 (i.e. MRE-269), and incubated in the presence of 10ng/mL PDGF-BB for 24h for Figures 4 and 5, and 6h for Figure 6. The treated cells were then incubated during 4 hours with 10µg/mL of fluorescently labelled DiI-oxLDL (Figures 4 and 5) and their ability to internalise the oxLDL was analysed by fluorescence microscopy (Figure 4) and FACS (Figure 5). FACS allows precise quantification of the number of fluorescent cells (i.e. those that have incorporated fluorescent oxLDL) and the intensity of the incorporated fluorescence per cell (i.e. the quantity of incorporated oxLDL/cell). Nuclei were stained with 4'-6'diamidino-2-phenylindol (DAPI) for analysis by fluorescence microscopy (Figure 4) or cells were directly analysed by flow cytometry (Figure 5). A detailed description of the protocol and apparatus used is given in the art.
(§2) Regarding Figure 4, representative images of the analysis of 5 fields examined in two experiments (n=2). […]
(§3) The expression of genes encoding transporters involved in cholesterol efflux (ABCA1: ATP-binding cassette A1 and ABCG1: ATP-binding cassette subfamily G member 1) was measured by real-time RT-PCR. […]

[1] = test system: vascular smooth muscle cells-derived foam cells; experiment: Radioisotopic cholesterol efflux assay ([3H]-cholesterol-loaded VSMCs); type: cell-based, human
From the text: Primary cultures of aortic smooth muscle cells (AoSMC) obtained from a human diabetic and obese donor ([…]) were purchased from Lonza (D-AoSMC CloneticsTM). Cells were cultivated on 12-well plates at 50 000 cells/well in a growth medium composed of the Smooth Muscle Basal Medium (SmBM, Lonza) supplemented with 0.2% hEGF, 0.1% insulin, 0.2% hFGF-B, 5% Fetal Bovine Serum (FBS) and 0.1% gentamicin/amphotericin-B (SingleQuots, Lonza, concentrations not specified) according to Lonza's instructions. The foam phenotype was induced when cells reached a subconfluent density. During all the experiments, cells were maintained within an atmosphere enriched with 5% CO2 at 37°C and were used at passages ranging from 6 to 9. […]
Cholesterol efflux assay was performed as previously described by using [3H]-cholesterol-loaded VSMCs. […] Fractional cholesterol efflux, expressed as a percentage, was calculated as the amount of the radioactivity recovered in the cleared medium divided by the total radioactivity (radioactivity in the medium + radioactivity in the cells). Radioactivity in the cells was obtained after the lipid extraction in a mixture of hexane isopropanol (3:2 v/v) and was determined by liquid scintillation counting on a Wallac Trilux 1450 Microbeta scintillation counter (PerkinElmer, MA, USA). […]

ABCA1 = ABCA1 gene expression by real-time RT-PCR in aortic smooth muscle cells; type: cell-based, human; conditions: normalized with HPRT, n=1 or 2
Procedure: as §1, §2, §3

[2] = test system: human aortic smooth muscle cells; experiment: Internalisation of DiI-oxLDL by aortic smooth muscle cells (fluorescence microscopy and FACS); type: cell-based; conditions: 1h pre-treatment, DiI-oxLDL 10 µg/mL 4 hours, read-out: concentration from which incorporation of oxLDL is inhibited
[3] = pre-treated 1h, then PDGF-BB 10 ng/mL 6h

CC(C)N(CCCCOCC(=O)O)c1cnc(-c2ccccc2)c(-c2ccccc2)n1 [MRE-269]
Expression of PDGF-BB-inhibited ABCG1 gene (ABCG1; [3]): partially restored | Basal cholesterol efflux ([1]; MRE-269 100 nM alone, no rHDL, basal efflux about 2.6 %): not modified | cholesterol efflux ([1]; MRE-269 100 nM together with rHDL 20 µg/mL, 24h, n=6): 20.21% | Expression of PDGF-BB-inhibited ABCA1 gene (ABCA1; [3]): partially restored | minimal effective concentration ([2]; Homo sapiens, basal incorporation): ≥ 0.005 µM | minimal effective concentration ([2]; incorporation stimulated by PDGF-BB 10 ng/mL 24h): ≥ 0.005 µM

CC(C)N(CCCCOCC(=O)NS(C)(=O)=O)c1cnc(-c2ccccc2)c(-c2ccccc2)n1 [Selexipag, 2-{4-[(5,6-diphenylpyrazin-2-yl)(isopropyl)amino]butoxy}-N-(methylsulfonyl)acetamide]
basal expression of gene encoding ABCG1 (ABCG1; basal, no PDGF-BB): increased | basal expression of gene encoding ABCA1 (ABCA1; basal, no PDGF-BB): increased
